What was measured:
[1] = Fe(III) binding study by UV-vis spectroscopy; conditions: 30 μM compound, excess FeCl3 (50 μM), methanol
Protocol: With the prodrugs in hand, binding studies were carried out using UV-vis spectroscopy; this was done to confirm the Fe(III) binding ability of all new compounds. […] To evaluate whether 2a, 2b, 3a, and 3b were chelating Fe(III), each prodrug was similarly dissolved in a solution containing excess FeCl3.
Fig. 2 UV-vis absorption spectra for prodrugs 2a/b and 3a/b as well as 1 at a concentration of 30 μM with an excess of FeCl3 as Fe(III) source (50 μM) in methanol.
UV-vis spectra were recorded in methanol containing the indicated ligand or prodrug at a concentration of 30 µM and as appropriate Fe(III) at a concentration of 50 µM. A stock solution of FeCl3 in DMSO was used as source of Fe(III) and ligands were added from a […] stock solution in DMSO. All samples contained a final concentration of <0.2% DMSO.
Figure S7: UV-vis absorption spectra of 1, Fe(III), and 1 + Fe(III). The graph for 1 + Fe(III) (Numerically) was constructed by numerically adding the respective signals of Fe(III) and 1 to show what graph could be expected if the two species were in the same solution without interacting.
Figure S8: UV-vis absorption spectra of 2a, Fe(III), and 2a + Fe(III). The graph for 2a + Fe(III) (Numerically) was constructed by numerically adding the respective signals of Fe(III) and 2a to show what graph could be expected if the two species were in the same solution without interacting. […]

[2] = test system: GM5756 fibroblast cells; experiment: MTT cell viability assay, GM5756 fibroblast cells (non-cancerous control); type: cell-based; conditions: 72 h incubation, mean and SD of three independent experiments, read-out: IC50 against GM5756
Protocol: (§1) Next, the cytotoxicity of the prodrugs was assessed in the human lung cancer (A549) and human ovarian cancer (OvCar-3) cell lines: overexpressing β-glucosidase, and, overexpressing both β-glucosidase and β-galactosidase, respectively.[40,41] For this, a standard MTT assay was employed to generate the proliferation profiles (cf. ESI ^† Fig. S1–S5) and allowed us to calculate the IC50 values for each compound. GM5756 fibroblast cells were included as non-cancerous control.
(§2) Cell culture. Ovcar-3 cells were maintained in RPMI-1640 medium (Invitrogen), A549 cells were maintained in high glucose (4.5 g/L) Dulbecco’s Modified Eagle’s medium (Invitrogen. Alle employed culture media were supplemented with 10% fetal bovine serum (Gibco), 2% penicillin/streptomycin (Sigma Aldrich), 1%GlutaMAX™-I (100x, Gibco), and 1% sodium pyruvate (100 mM, Gibco).
(§3) Cells were kept under a humidified atmosphere of 10% CO2 and 90% air at 37°C. Cells were split when they reached 90% confluency. All employed cell lines were sourced from the German Collection of Microorganisms and Cell Cultures (Leibnitz Institute, DSMZ).
(§4) Cell viability studies and MTT assays. Cells were harvested and plated on a 96-well plate in 100 µL growth medium at a density of 1500 cells per well. The cells were left to grow for 24 h at 37°C under a humidified atmosphere with 10% CO2. The next day, 100 µL of growth medium containing appropriate concentrations of the investigated compound were added to each well. As a control, the first row of wells was treated with 100 µL medium containing only the vehicle (1% DMSO); all wells contained a final concentration of 0.5% DMSO for the duration of the treatment. After incubation with the compound for 72 h, 50 µL of MTT solution (2.5 mg/mL 3-(4,5-dimethylthiazol-2-yl)-2,5-diphenyltetrazolium bromide dye in PBS buffer) was added to each well. After an additional incubation for 2 h, the supernatant was aspired off and 200 µL of DMSO was added to each well to solubilize the precipitated formazan dye. The produced formazan dye was quantified by measuring the optical density of the solution at 550 nm with a Tecan Infinite M Nano+ plate reader. A baseline correction was performed by subtracting a reference absorbance at 620 nm for each well. From the mean of the corrected absorbances for each set of equivalent wells, a dose-response curve was produced, which was then normalized to the wells containing untreated cells to allow for plate-to-plate comparison. The resulting dose-response curves were subjected to non-linear regression analysis performed in Microsoft Excel (version 16.64) to determine IC50 via the Hill-Langmuir model. Data is shown as the mean of three replicate experiments and error bars represent the standard deviation at each datum point.

[3] = test system: OvCar-3 cells; experiment: MTT cell viability assay, OvCar-3 cells; type: cell-based; conditions: Homo sapiens, 72 h incubation, mean and SD of three independent experiments, read-out: IC50 against OvCar-3
Protocol: as §1, §2, §3, §4

[4] = test system: A549 cells; experiment: MTT cell viability assay, A549 cells; type: cell-based; conditions: Homo sapiens, 72 h incubation, mean and SD of three independent experiments, read-out: IC50 against A549
Protocol: as §1, §2, §3, §4

[5] = test system: β-glucosidase; experiment: Enzymatic cleavage study (HPLC) with β-glucosidase; type: biochemical, almonds; conditions: for Release of 1 (HPLC): 100 μM prodrug in PBS, 2 units β-glucosidase, 37°C
Protocol: To test the desired, selective enzymatic cleavage and further evaluate compound stability, solutions of each prodrug were prepared in phosphate-buffered saline (PBS), and either β-galactosidase or β-glucosidase were added. After incubation times of 24 h and 48 h, samples from each mixture were analyzed by HPLC to gain insight into the relative amounts of both the remaining prodrug and the liberated 1.
Fig. 3 HPLC traces after 48 h of enzyme incubation for the prodrugs of this study as indicated at their respective peaks. The identity of the employed enzyme is indicated on the left of the chromatogram and the identity of each observed compound is shown above the respective peak. Chromatograms are shown with an offset of 2 along the ordinate to facilitate comparison.
The three following enzymes were employed in this study:
(1) esterase from porcine liver sourced from Sigma Aldrich as dry powder with an activity of 229.4 units/mg protein as indicated by the supplier for the received lot; (2) β-glucosidase from almonds sourced from Sigma Aldrich as dry powder with an activity of 11.7 U/mg as indicated by the supplier for the received lot
(3) β-galactosidase from e.coli overproducer sourced from Roche as prepared aqueous solution with an activity of 1500 units/mL protein as indicated by the supplier for the […]
As indicated for each experiment below, the respective enzyme was dissolved in PBS buffer and diluted as appropriate to produce the desired concentration.
25 mM stock solutions in DMSO were prepared for 2a, 2b, 3a, and 3b. […]
[…] The vials were then assigned to one of three experimental groups: control, negative, and positive.
In the control group, no enzyme was introduced. […]
All vials were incubated in a 37°C water bath for 48 hours. Aliquots were extracted from each vial after 24 and 48 hours, respectively, and analyzed as described below.
The extracted aliquots were analyzed via high-performance liquid chromatography (HPLC) with ultraviolet (UV) detection at a wavelength of 254 nm. Chromatograms were plotted with an offset of 1 along the y-axis to allow clear intercomparison of the data across the […]

Cleavage of 1 from prodrug (HPLC of the fluorescence sample) ([5]; 20 μM in water, 3 enzyme units of β-glucosidase, 24 h)	Release of 1 (HPLC) ([5]; 24 h)	Release of 1 (HPLC) ([5]; 48 h)	SMILES	Absorbance at 510 nm (Fe(III) chelation band) [1]	IC50 [2]	IC50 [3]	IC50 [4]
			OC[C@H]1OC(Oc2ccccc2-c2nc(-c3ccccc3O)nn2-c2ccccc2)[C@H](O)[C@@H](O)[C@H]1O (stereo partly drawn) [2a]	no relevant absorbance at 510 nm	> 100 µM	67.6 ± 13 µM	74.4 ± 14.1 µM
successful cleavage	significant release of 1	further increased	OC[C@H]1OC(Oc2ccc(COc3ccccc3-c3nc(-c4ccccc4O)nn3-c3ccccc3)cc2)[C@H](O)[C@@H](O)[C@@H]1O (stereo partly drawn) [3b]	no relevant absorbance at 510 nm	15.3 ± 2.3 µM	3.7 ± 0.3 µM	7.4 ± 1.5 µM
	no release of 1 was observed	no release of 1 was observed	OC[C@H]1OC(Oc2ccccc2-c2nc(-c3ccccc3O)nn2-c2ccccc2)[C@H](O)[C@@H](O)[C@@H]1O (stereo partly drawn) [2b]	no relevant absorbance at 510 nm	> 100 µM	76.5 ± 0.8 µM	> 100 µM
			OC[C@H]1OC(Oc2ccc(COc3ccccc3-c3nc(-c4ccccc4O)nn3-c3ccccc3)cc2)[C@H](O)[C@@H](O)[C@H]1O (stereo partly drawn) [3a]	no relevant absorbance at 510 nm	> 100 µM	9.1 ± 1.6 µM	44.1 ± 2.4 µM

Source: PMC12177571, “Glycosidase-activated prodrugs of a cytotoxic iron chelator for targeted cancer therapy” (RSC Medicinal Chemistry, 2025)
